# Active and inactive are the calls of the source. No cut-off for these calls is given here.
# Key:
# [1] = biological target: T1, Diacylglycerol O-acyltransferase 1 (Homo sapiens, UniProt O75907); test: Inhibition of recombinant human DGAT1 expressed in Sf9 cell membrane assessed as inhibition of triglyceride synthesis incubated for 1 hrs by LC-MS-based mass spectrophotometric analysis; type: cell membranes
# T1 sequence (O75907 whole entry): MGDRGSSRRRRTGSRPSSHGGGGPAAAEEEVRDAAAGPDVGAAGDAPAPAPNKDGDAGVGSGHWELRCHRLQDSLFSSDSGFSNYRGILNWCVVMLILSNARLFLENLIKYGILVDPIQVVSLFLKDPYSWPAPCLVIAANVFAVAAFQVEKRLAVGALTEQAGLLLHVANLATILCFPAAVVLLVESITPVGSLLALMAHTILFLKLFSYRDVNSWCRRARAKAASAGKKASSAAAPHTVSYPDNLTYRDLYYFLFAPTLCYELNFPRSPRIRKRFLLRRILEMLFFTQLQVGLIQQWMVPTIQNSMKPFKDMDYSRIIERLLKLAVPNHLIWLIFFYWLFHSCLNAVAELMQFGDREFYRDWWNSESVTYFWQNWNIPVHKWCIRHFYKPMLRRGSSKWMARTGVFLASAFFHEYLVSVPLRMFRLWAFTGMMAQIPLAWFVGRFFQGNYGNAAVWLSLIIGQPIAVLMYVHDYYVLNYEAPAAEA
# [2] = biological target: T1, Diacylglycerol O-acyltransferase 1; test: Inhibition of human DGAT1 in serum starved HEK293 cells assessed as inhibition of triglyceride synthesis incubated for 20 mins followed by 13C-addition of 13C-oleic acid pre-complexed with BSA for 120 mins by LC-MS-based mass spectrophotometric analysis; type: cell-based
# [3] = Metabolic stability in rat liver microsomes assessed as parent compound remaining at 1 uM and measured at 30 mins by LC-MS/MS analysis; type: ADME, Microsome; settings: read-out: Stability
# [4] = Metabolic stability in mouse liver microsomes assessed as parent compound remaining at 1 uM and measured at 30 mins by LC-MS/MS analysis; type: ADME, Microsome; settings: read-out: Stability
# [5] = Metabolic stability in human liver microsomes assessed as parent compound remaining at 1 uM and measured at 30 mins by LC-MS/MS analysis; type: ADME, Microsome; settings: read-out: Stability
# hERG (KCNH2) = hERG (KCNH2) (Homo sapiens, UniProt Q12809); test: Displacement of [3H]astemizole from human ERG expressed in HEK293 cell membrane at 10 uM for 2 hrs by Radiometric displacement assay; type: toxicity; settings: HEK293 cell membranes that express hERG, probe [3H]astemizole
# [6] = Plasma protein binding in rat; type: ADME, cell-free; settings: read-out: PPB
# [7] = Plasma protein binding in mouse; type: ADME, cell-free; settings: read-out: PPB (converted)
# [8] = Clearance in C57BL/6 mouse at 3 mg/kg, iv or 10 mg/kg, po and measured up to 24 hrs by LC-MS/MS analysis; type: ADME, organism-based; settings: in vivo
# [9] = Apparent permeability across apical to basolateral side in MDCK cells at 2.5 uM for 90 mins; type: ADME, cell-based, Canis lupus familiaris; settings: dog
# [10] = Volume of distribution at steady state in C57BL/6 mouse at 3 mg/kg, iv or 10 mg/kg, po and measured up to 24 hrs by LC-MS/MS analysis; type: ADME, organism-based; settings: in vivo, read-out: Vdss
# [11] = AUC in C57BL/6 mouse at 3 mg/kg, iv or 10 mg/kg, po and measured up to 24 hrs by LC-MS/MS analysis; type: ADME, organism-based; set-up: time < 24 hrs, dose 3 mg/kg, route iv; settings: in vivo
# [12] = Cmax in C57BL/6 mouse at 3 mg/kg, iv or 10 mg/kg, po and measured up to 24 hrs by LC-MS/MS analysis; type: ADME, organism-based; set-up: dose 3 mg/kg, time < 24 hrs, route iv; settings: in vivo
# [13] = Tmax in C57BL/6 mouse at 3 mg/kg, iv or 10 mg/kg, po and measured up to 24 hrs by LC-MS/MS analysis; type: ADME, organism-based; settings: in vivo
# [14] = Half life in C57BL/6 mouse at 3 mg/kg, iv or 10 mg/kg, po and measured up to 24 hrs by LC-MS/MS analysis; type: ADME, organism-based; settings: in vivo
# [15] = Oral bioavailability in C57BL/6 mouse 10 mg/kg or 3 mg/kg, iv and measured up to 24 hrs by LC-MS/MS analysis; type: ADME, organism-based; settings: in vivo
# [16] = Volume of distribution at steady state in Wistar rat at 3 mg/kg, iv or 10 mg/kg, po and measured up to 24 hrs by LC-MS/MS analysis; type: ADME, organism-based; settings: in vivo, read-out: Vdss
# [17] = Clearance in Wistar rat at 3 mg/kg, iv or 10 mg/kg, po and measured up to 24 hrs by LC-MS/MS analysis; type: ADME, organism-based; settings: in vivo
# [18] = AUC in Wistar rat at 3 mg/kg, iv or 10 mg/kg, po and measured up to 24 hrs by LC-MS/MS analysis; type: ADME, organism-based; set-up: dose 3 mg/kg, time < 24 hrs, route iv; settings: in vivo
# [19] = Cmax in Wistar rat at 3 mg/kg, iv or 10 mg/kg, po and measured up to 24 hrs by LC-MS/MS analysis; type: ADME, organism-based; set-up: dose 3 mg/kg, time < 24 hrs, route iv; settings: in vivo
# [20] = Tmax in Wistar rat at 3 mg/kg, iv or 10 mg/kg, po and measured up to 24 hrs by LC-MS/MS analysis; type: ADME, organism-based; settings: in vivo
# [21] = Half life in Wistar rat at 3 mg/kg, iv or 10 mg/kg, po and measured up to 24 hrs by LC-MS/MS analysis; type: ADME, organism-based; settings: in vivo
# [22] = Oral bioavailability in Wistar rat at 10 mg/kg or 3 mg/kg, iv and measured up to 24 hrs by LC-MS/MS analysis; type: ADME, organism-based; settings: in vivo
# [23] = Drug distribution in C57BL/6 mouse plasma 10 mg/kg, po and measured at 1 hrs post dose by LC-MS/MS analysis; type: ADME, organism-based
# [24] = Drug distribution in C57BL/6 mouse plasma 10 mg/kg, po and measured at 2 hrs post dose by LC-MS/MS analysis; type: ADME, organism-based
# [25] = Drug distribution in C57BL/6 mouse plasma 10 mg/kg, po and measured at 8 hrs post dose by LC-MS/MS analysis; type: ADME, organism-based
# [26] = Drug distribution in C57BL/6 mouse adipose tissue 10 mg/kg, po and measured at 1 hrs post dose by LC-MS/MS analysis; type: ADME, organism-based; settings: read-out: Ct
# [27] = Drug distribution in C57BL/6 mouse adipose tissue 10 mg/kg, po and measured at 2 hrs post dose by LC-MS/MS analysis; type: ADME, organism-based; settings: read-out: Ct
# [28] = Drug distribution in C57BL/6 mouse adipose tissue 10 mg/kg, po and measured at 8 hrs post dose by LC-MS/MS analysis; type: ADME, organism-based; settings: read-out: Ct
# [29] = Drug distribution in C57BL/6 mouse liver 10 mg/kg, po and measured at 1 hrs post dose by LC-MS/MS analysis; type: ADME, organism-based; settings: read-out: Ct
# [30] = Drug distribution in C57BL/6 mouse liver 10 mg/kg, po and measured at 2 hrs post dose by LC-MS/MS analysis; type: ADME, organism-based; settings: read-out: Ct
# [31] = Drug distribution in C57BL/6 mouse liver 10 mg/kg, po and measured at 8 hrs post dose by LC-MS/MS analysis; type: ADME, organism-based; settings: read-out: Ct
# [32] = Drug distribution in C57BL/6 mouse skeletal muscle 10 mg/kg, po and measured at 1 hrs post dose by LC-MS/MS analysis; type: ADME, organism-based, Skeletal muscle tissue; settings: read-out: Ct
# [33] = Drug distribution in C57BL/6 mouse skeletal muscle 10 mg/kg, po and measured at 2 hrs post dose by LC-MS/MS analysis; type: ADME, organism-based, Skeletal muscle tissue; settings: read-out: Ct
# [34] = Drug distribution in C57BL/6 mouse skeletal muscle 10 mg/kg, po and measured at 8 hrs post dose by LC-MS/MS analysis; type: ADME, organism-based, Skeletal muscle tissue; settings: read-out: Ct
# [35] = Drug distribution in C57BL/6 mouse brain 10 mg/kg, po and measured at 1 hrs post dose by LC-MS/MS analysis; type: ADME, organism-based; settings: read-out: Ct
# [36] = Drug distribution in C57BL/6 mouse brain 10 mg/kg, po and measured at 2 hrs post dose by LC-MS/MS analysis; type: ADME, organism-based; settings: read-out: Ct
# Mus musculus [37] = test: In vivo inhibition of DGAT1 in C57BL/6 mouse model of acute lipid challenge assessed as reduction in chylomicron derived plasma triglyceride excursion at 3 to 10 mg/kg, po as corn oil bolus by Oral lipid tolerance test relative to control; type: functional, organism-based; settings: dose 3-10 mg/kg
# Mus musculus [38] = test: In vivo inhibition of DGAT1 in C57BL/6 mouse model of acute lipid challenge assessed as reduction in AUC plasma triglyceride level at 3 to 10 mg/kg, po as corn oil bolus by Oral lipid tolerance test relative to control; type: functional, organism-based; settings: dose 3-10 mg/kg
# Sequence of hERG (KCNH2) (Q12809 whole entry): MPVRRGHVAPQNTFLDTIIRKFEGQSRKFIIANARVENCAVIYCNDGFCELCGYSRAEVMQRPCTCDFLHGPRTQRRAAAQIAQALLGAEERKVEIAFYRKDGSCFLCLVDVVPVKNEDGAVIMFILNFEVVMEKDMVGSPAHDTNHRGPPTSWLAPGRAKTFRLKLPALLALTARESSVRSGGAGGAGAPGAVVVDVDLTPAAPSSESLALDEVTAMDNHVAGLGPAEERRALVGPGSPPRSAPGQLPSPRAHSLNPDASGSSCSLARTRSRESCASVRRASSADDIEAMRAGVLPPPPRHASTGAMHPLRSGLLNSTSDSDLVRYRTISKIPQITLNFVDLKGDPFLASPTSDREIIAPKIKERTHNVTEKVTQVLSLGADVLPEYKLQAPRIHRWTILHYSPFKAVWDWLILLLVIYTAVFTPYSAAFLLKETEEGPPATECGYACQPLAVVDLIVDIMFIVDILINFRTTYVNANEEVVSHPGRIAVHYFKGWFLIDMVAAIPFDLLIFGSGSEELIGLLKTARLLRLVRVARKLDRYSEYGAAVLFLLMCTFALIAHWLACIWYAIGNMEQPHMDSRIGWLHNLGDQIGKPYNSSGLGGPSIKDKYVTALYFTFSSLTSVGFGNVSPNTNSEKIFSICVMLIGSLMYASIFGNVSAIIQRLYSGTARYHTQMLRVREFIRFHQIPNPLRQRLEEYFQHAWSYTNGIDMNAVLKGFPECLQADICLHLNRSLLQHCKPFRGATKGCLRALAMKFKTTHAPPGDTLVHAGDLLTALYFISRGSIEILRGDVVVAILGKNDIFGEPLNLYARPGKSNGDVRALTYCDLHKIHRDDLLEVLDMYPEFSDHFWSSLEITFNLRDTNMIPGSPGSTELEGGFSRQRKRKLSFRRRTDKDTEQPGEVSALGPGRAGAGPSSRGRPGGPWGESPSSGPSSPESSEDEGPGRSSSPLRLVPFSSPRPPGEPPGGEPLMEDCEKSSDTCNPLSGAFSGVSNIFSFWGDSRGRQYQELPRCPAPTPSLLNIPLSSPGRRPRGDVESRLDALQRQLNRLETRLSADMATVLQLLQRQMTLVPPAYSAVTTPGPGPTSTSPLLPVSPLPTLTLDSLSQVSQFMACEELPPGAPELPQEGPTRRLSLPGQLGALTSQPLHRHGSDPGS
structure (smiles),measurement,setting,value
O=C(O)CC1CCC2(CC1)CCC(c1ccc(NC(=O)c3nnc(Nc4ccc(F)c(F)c4)o3)cc1)CC2 (stereo in doubt; 8b),IC50,[1],75 nM
same,IC50,[2],23 nM
O=C(O)CC1CCC2(CC1)CCN(c1ccc(NC(=O)c3nnc(Nc4ccc(F)c(F)c4)o3)cn1)CC2 [listing 1 of 2 here],"remaining at 0.5 h, 1 µM",[3],84%
same,"remaining at 0.5 h, 1 µM",[4],78%
same,"remaining at 0.5 h, 1 µM",[5],100%
same,"inhibition at 2 h, 10 µM",hERG (KCNH2),10%
same,fraction unbound,[6],0.01
same,fraction unbound,[7],0.01
same,clearance,[8],60 mL/min/kg
same,"Papp A→B at 1.5 h, 2.5 µM",[9],5.3 ×10⁻⁶ cm/s
same,Vd,[10],13 L/kg
same,AUC at 24 h,[11],1.6 µM·h
same,Cmax,[12],1000 nM
same,Tmax,[13],0.25 h
same,half-life,[14],5.7 h
same,bioavailability,[15],41%
same,Vd,[16],0.6 L/kg
same,clearance,[17],3.3 mL/min/kg
same,AUC at 24 h,[18],30 µM·h
same,Cmax,[19],9200 nM
same,Tmax,[20],1.4 h
same,half-life,[21],3.1 h
same,bioavailability,[22],38%
same,concentration at 1 h,[23],1870 nM
same,concentration at 2 h,[24],1460 nM
same,concentration at 8 h,[25],60 nM
same,concentration at 1 h,[26],160 nM
same,concentration at 2 h,[27],150 nM
same,concentration at 8 h,[28],10 nM
same,concentration at 1 h,[29],39200 nM
same,concentration at 2 h,[30],54900 nM
same,concentration at 8 h,[31],22200 nM
same,concentration at 1 h,[32],100 nM
same,concentration at 2 h,[33],50 nM
same,concentration at 8 h,[34],10 nM
same,concentration at 1 h,[35],10 nM
same,concentration at 2 h,[36],10 nM
O=C(O)CC1CCC2(CC1)CCN(c1ccc(NC(=O)c3nnc(Nc4ccc(F)c(F)c4)o3)cn1)CC2 [listing 2 of 2 here],inhibition,Mus musculus [37],Active
same,inhibition,Mus musculus [38],Active
O=C(O)CC1CCC2(CC1)CCC(c1ccc(NC(=O)c3nnc(Nc4ccc(F)c(F)c4)o3)cc1)CC2 (stereo in doubt; 8),IC50,[2],14.6 nM
same,"remaining at 0.5 h, 1 µM",[3],96%
same,"remaining at 0.5 h, 1 µM",[4],97%
same,"remaining at 0.5 h, 1 µM",[5],100%
same,"inhibition at 2 h, 10 µM",hERG (KCNH2),18%
same,fraction unbound,[6],0.01
same,fraction unbound,[7],< 0.01

# — ChEMBL document CHEMBL5143597, “Design and synthesis of novel spirocyclic carboxylic acids as potent and orally bioavailable DGAT1 inhibitors and their biological evaluation” (Bioorg Med Chem Lett, 2022)
